From ChEMBL document CHEMBL1208716, “Ceratinadins A-C, new bromotyrosine alkaloids from an Okinawan marine sponge Pseudoceratina sp” (2010)
≈ marks a conversion by molar mass, not a printed value.

Assays:
Cryptococcus neoformans = test: Antifungal activity against Cryptococcus neoformans; format: functional
Candida albicans = test: Antifungal activity against Candida albicans; format: functional

MIC (Cryptococcus neoformans) | MIC (Candida albicans) | Compound
4 mg/L (≈ 5.99 µM) | 2 mg/L (≈ 3 µM) | COC1=C(Br)[C@H](O)[C@@]2(C=C1Br)CC(C(=O)NCCc1cn(-c3cc(O)c4[nH]cc(O)c(=O)c4c3O)cn1)=NO2 [CERATINADIN A]
8 mg/L (≈ 11.7 µM) | 4 mg/L (≈ 5.86 µM) | COC1=C(Br)[C@H](O)[C@@]2(C=C1Br)CC(C(=O)NCCc1[nH]c(=N)[nH]c1-c1cc(O)c3[nH]cc(O)c(=O)c3c1O)=NO2 [CERATINADIN B]
> 32 mg/L | > 32 mg/L | N=c1[nH]cc(CCNC(=O)C2=NO[C@]3(C=C(Br)C(=O)[C@@H](Br)[C@@H]3O)C2)[nH]1 [CERATINADIN C]
